Reference: patent publication US20220288048A1, “PIMAVANSERIN FOR TREATING SCHIZOPHRENIA OR FOR TREATING PSYCHOSIS SECONDARY TO NEURODEGENERATIVE DISORDERS OR DEPRESSIVE DISORDER” (ACADIA Pharmaceuticals Inc., priority 2019, published 2022)

Tested on: adult schizophrenia patients with a persistent inadequate response to their existing antipsychotic therapy
Assay: 6-week study of pimavanserin or placebo added to existing antipsychotic treatment: efficacy rating scales
Format: in vivo, human
Experimental: The effect of pimavanserin as an adjunctive treatment in adult schizophrenia patients with a persistent inadequate response (i.e., partial responders) to their existing antipsychotic therapy was tested. 396 patients with moderate-to-severe psychotic symptoms were randomized to receive either pimavanserin or placebo added to existing antipsychotic treatment. […] Dosages of background oral antipsychotics could not be changed within four weeks of screening and dosages of long-acting injectables (LAI) could not be changed within 16 weeks of screening. […] Patients were administered a daily dose of pimavanserin or a placebo for six weeks. The dose started at 20 mg and could be adjusted to 34 mg or 10 mg between weeks 1 and 3. The majority of patients (56%) completed the study at the highest dose level. Patients were evaluated at baseline and on a weekly basis according to the clinical rating scale Positive and Negative Symptom Scale (PANSS). The PANSS is a 30-item, 7-point rating system that was developed to cover a range of negative symptoms not adequately measured by the Brief Psychiatric Rating Scale. It has sections that specifically measure positive symptoms, negative symptoms, and general psychopathology in schizophrenic subjects. The PANSS is widely used in trials of antipsychotic drug treatment, and has been formally validated for such use. A subset of 5 of the PANSS factors, the […] factors, were also evaluated. Other clinical rating scales that were assessed were the Clinical Global Impression Scale (CGI), Personal and Social Performance Scale (PSP), drug attitude inventory (DAI-10), Karolinska Sleepiness Scale (KSS), Calgary Depression Scale for Schizophrenia (CDSS), 36-item Short Form Physical Health evaluation ([…]) and 36-item Short Form Mental Health evaluation […].

[1] = FAS population, W6, Missing as non-Rsp
[2] = Full Analysis Set, OC, Week 6, listed as PIM
[3] = Full Analysis Set, added to existing antipsychotic
[4] = Sensitivity: MI in FAS, ANCOVA, W6
[5] = Sensitivity: MI in RAND, ANCOVA, W6
[6] = Sensitivity: OC in PP, MMRM, W6

CC(C)COc1ccc(CNC(=O)N(Cc2ccc(F)cc2)C2CCN(C)CC2)cc1 [Pimavanserin, N-(4-Fluorophenylmethyl)-N-(1-methylpiperidin-4-yl)-N′-(4-(2-methylpropyloxy)phenylmethyl)carbamide]
CGI-I 1 or 2 Rsp, (%) [1]: (35.2) %
CGI-I 1 or 2 Rsp, Diff in % (PIM − PBO) [1]: 2.1%
PANSS >= 20% Rsp, (%) [1]: (56.5) %
PANSS >= 20% Rsp, Diff in % (PIM − PBO) [1]: 5.9%
PANSS >= 30% Rsp, (%) [1]: (36.8) %
PANSS >= 30% Rsp, Diff in % (PIM − PBO) [1]: 2.6%
CGI-I 1 or 2 Rsp, (%) (FAS population, W6, OC): (39.3) %
CGI-I 1 or 2 Rsp, Diff in % (PIM − PBO) (FAS population, W6, OC): 4.9%
CGI-I no Chg or Worsened, (%) (FAS population, W6, OC): (27.2) %
CGI-I no Chg or Worsened, Diff in % (PIM − PBO) (FAS population, W6, OC): −0.9%
PANSS >= 20% Rsp, (%) (FAS population, W6, OC): (63.0) %
PANSS >= 20% Rsp, Diff in % (PIM − PBO) (FAS population, W6, OC): 10.6%
PANSS >= 30% Rsp, (%) (FAS population, W6, OC): (41.0) %
PANSS >= 30% Rsp, Diff in % (PIM − PBO) (FAS population, W6, OC): 5.6%
CGI-S score, Change from Baseline to Week 6, Mean (SE) (Full Analysis Set): −0.8 (0.06)
PANSS Marder negative factor score, Change from Baseline to Week 6, Mean (SE) (Full Analysis Set): −3.3 (0.31)
PANSS Marder negative factor score, Week 6, Mean (SE) (Full Analysis Set): 19.2 (0.38)
PANSS negative symptoms scale sub-score, Change from Baseline to Week 6, Mean (SE) (Full Analysis Set): −2.8 (0.28)
PANSS negative symptoms scale sub-score, Week 6, Mean (SE) (Full Analysis Set): 20.3 (0.35)
CGI-S score, Diff in MMRM LSM (SE), pimavanserin − placebo (Full Analysis Set, OC, Week 6): −0.1 (0.08)
CGI-S score, Effect Size (Cohen's d) (Full Analysis Set, OC, Week 6): 0.200
PANSS Marder negative factor score, Diff in MMRM LSM (SE), pimavanserin − placebo (Full Analysis Set, OC, Week 6): −0.9 (0.41)
PANSS Marder negative factor score, Effect Size (Cohen's d) (Full Analysis Set, OC, Week 6): 0.218
PANSS negative symptoms scale sub-score, Diff in MMRM LSM (SE), pimavanserin − placebo (Full Analysis Set, OC, Week 6): −0.7 (0.37)
PANSS negative symptoms scale sub-score, Effect Size (Cohen's d) (Full Analysis Set, OC, Week 6): 0.206
PANSS total score, Diff in MMRM LSM (SE), pimavanserin − placebo (Full Analysis Set, OC, Week 6): −2.1 (1.24)
PANSS total score, Effect Size (Cohen's d) (Full Analysis Set, OC, Week 6): 0.173
CGI-S score, Diff in MMRM LSM (SE), pimavanserin − placebo [2]: −0.1
CGI-S score, Effect Size (Cohen's d) [2]: 0.20
PANSS Marder negative factor score, Diff in MMRM LSM (SE), pimavanserin − placebo [2]: −0.9
PANSS Marder negative factor score, Effect Size (Cohen's d) [2]: 0.22
PANSS negative symptoms scale sub-score, Diff in MMRM LSM (SE), pimavanserin − placebo [2]: −0.7
PANSS negative symptoms scale sub-score, Effect Size (Cohen's d) [2]: 0.21
PANSS total score, Diff in MMRM LSM (SE), pimavanserin − placebo [2]: −2.1
PANSS total score, Effect Size (Cohen's d) [2]: 0.17
CGI-S score, Week 6, Mean (SE) [3]: 3.8 (0.07)
PANSS total score, Change from Baseline to Week 6, Mean (SE) [3]: −15.3 (0.93)
PANSS total score, Week 6, Mean (SE) [3]: 72.7 (1.04)
Positive or negative symptoms, difference between treatment groups (North America): No significant differences
Clinical Global Impressions-Severity, LS Mean Change at Week 6 (North America subgroup): −0.7
PANSS Total Score, LS Mean Change at Week 6 (North America subgroup): −14.2
Clinical Global Impressions-Severity, Cohen's d Effect Size (North America subgroup, Week 6): −0.144
Clinical Global Impressions-Severity, LS Mean (SE) Difference (North America subgroup, Week 6): 0.1 (0.15)
PANSS Total Score, Cohen's d Effect Size (North America subgroup, Week 6): −0.229
PANSS Total Score, LS Mean (SE) Difference (North America subgroup, Week 6): 2.6 (2.74)
PANSS Total, LSM Change from Baseline at W6 (Sensitivity: MI in FAS, ANCOVA): −15.3
PANSS Total, Effect Size [4]: 0.16
PANSS Total, Treatment group Comparison (PIM-PBO) LSM [4]: −1.9
PANSS Total, LSM Change from Baseline at W6 (Sensitivity: MI in RAND, ANCOVA): −15.2
PANSS Total, Effect Size [5]: 0.15
PANSS Total, Treatment group Comparison (PIM-PBO) LSM [5]: −1.9
PANSS Total, LSM Change from Baseline at W6 (Sensitivity: OC ANCOVA): −15.3
PANSS Total, Effect Size (Sensitivity: OC ANCOVA, W6): 0.16
PANSS Total, Treatment group Comparison (PIM-PBO) LSM (Sensitivity: OC ANCOVA, W6): −1.9
PANSS Total, LSM Change from Baseline at W6 (Sensitivity: OC in PP, MMRM): −15.6
PANSS Total, Effect Size [6]: 0.19
PANSS Total, Treatment group Comparison (PIM-PBO) LSM [6]: −2.3
